Consider 15 compounds from patent US9512125B2, “Substituted pyrazolo[3.4-D] pyrimidines as anti-inflammatory agents” (THE REGENTS OF THE UNIVERSITY OF CALIFORNIA, priority 2004, dated 2016).

In test [1] the test system is HUVEC with or without PBMC (3C, 4H, SAG and LPS systems). The experiment in a line: BioMAP inflammation model systems (3C, 4H, SAG, LPS), cell-based ELISA profiling. Set-up: species or system human. The settings on record: 4 systems (3C, 4H, SAG, LPS); concentration of 5 micromolar; 24 h stimulation. A general note: An ELISA detects its analyte on a solid surface through an enzyme-linked reagent.

The next test deals with T cell activation. The experiment in a line: T cell activation inhibition in cell-based (BioMAP) assay. On the set-up: species or system human. Here is the method:
T-cell activation inhibitors may be especially useful in treating the inflammation underlying arthritis, psoriasis, vasculitis, multiple sclerosis, IBD, asthma, atherosclerosis, or other inflammatory disease.
(§1) Human umbilical vein endothelial cells (HUVEC) were cultured as described in Kunkel et al., 2004, FASEB J 18:1279-1281. Peripheral blood mononuclear cells (PBMC) were prepared from buffy coats (Stanford Blood Bank, Stanford, Calif.) by centrifugation over Hisopaque-1077 (Sigma). Four assay systems, 3C, 4H, SAG, and LPS, were used. For the 3C system, HUVEC were cultured for 24 h in microtiter plates (Falcon; BD Biosciences), in the presence of cytokines IL-1β (1 ng/ml), TNF-α (5 ng/ml), and IFN-γ (20 ng/ml). For the 4H system, HUVEC were cultured in the presence of IL-4 (5 ng/ml) and histamine (10 μM). For the SAG system, HUVEC were cultured with PBMC (7.5×10^4) and SAG (20 ng/ml). For the LPS system, HUVEC were cultured with PBMC (7.5×10^4) and LPS (2 ng/ml). Compounds were added 1 h before stimulation and were present during the entire 24-h stimulation period. Cell-based enzyme-linked immunosorbent assay (ELISAs) were carried out as described. (See Kunkel et al., 2004, FASEB J 18:1279-1281.)

For another test, the system named is IFN-gamma signaling. The experiment in a line: Gamma interferon signaling inhibition in cell-based (BioMAP) assay. Set-up: species or system human. The settings on record: weakly inhibit T cell and monocyte activation (less than 50%) but inhibit IFN-gamma signaling and collagen production. As to the method: In another embodiment, the compounds of the invention are the subset of compounds of Formula (I) that are gamma interferon signaling inhibitors. […] Gamma interferon signaling inhibitors may be especially useful in treating the inflammation underlying multiple diseases including rheumatoid arthritis, systemic sclerosis, COPD, asthma, atherosclerosis, cirrhosis, pulmonary fibrosis, sarcoidosis, keloids, and renal fibrosis.
as §1

The test system of test [2] is mouse peritoneal inflammation model. The experiment in a line: Mouse peritoneal inflammation model (thioglycollate). The test is classed as in vivo. The settings on record: 10 mg/kg intraperitoneal single dose, thioglycollate stimulus, peritoneal lavage at 4 and 24 hours. As to the method: The following example illustrates the ability of a compound useful in the methods of the present invention to reduce neutrophil and monocyte recruitment, as well as to reduce the total number of leukocytes in a mouse peritoneal inflammation model.
A single dose (10 mg/kg in 200 μl) of an anti-inflammatory pyrazolopyrimidine compound of the present invention (compound 30 in Table 1, above) was administered intraperionteally to a group of 6 mice while another group of 6 mice received an intraperitoneal injection of vehicle only. Fifteen minutes later, an inflammatory stimulus (thioglycollate, 200 μl) was administered intraperitoneally to each mouse. Peritoneal lavage was collected at 4 and 24 hours subsequent to stimulus administration.
Inflammatory infiltrate was recovered by injection of 10 ml of Ca++/Mg++ free PBS, massaging, and withdrawal. Total recovered cells were counted on a hemacytometer. The results are presented in FIG. 2 (average+/−SD of 6 mice).
Neutrophils, monocytes, lymphocytes and eosinophils were enumerated by analyzing smears of the peritoneal wash stained with Wright-Geimsa stain. The results are presented in FIG. 3 (average+/−SD of 6 mice).

For the next test, the system named is monocyte activation. The experiment in a line: Monocyte activation inhibition in cell-based (BioMAP) assay. Set-up: species or system human. Conditions: weakly inhibit T cell activation, strongly inhibit monocyte activation, MCP-1 and IL-8 (at least 50%) in a cell-based assay. As to the method:
as §1

Where [3] appears, read: strongly inhibit T cell activation: at least one listed gene product inhibited by at least 50% in a cell-based assay.

Structures are written as SMILES. Read-outs that look alike come from different tables or passages of the source.

Take `CC(C)(C)n1nc(-c2cccc(N)c2)c2c(N)ncnc21` [Compound 17]: in test [1], the outcome was active. Besides, in the test with T cell activation (setting [3]), the “T cell activation inhibitor classification” value is “T cell activation inhibitor”.

On to `Cc1cc(-c2nn(C(C)(C)C)c3ncnc(N)c23)cc2ccccc12` [Compound 8], for which the result in test [1] was active. The “gamma interferon signaling inhibitor classification” value in the test with IFN-gamma signaling is given as “interferon gamma signaling inhibitor”.

For the compound `CC(C)(C)n1nc(-c2cccc(O)c2)c2c(N)ncnc21` [Compound 41], the result in test [1] was active. Also, the “T cell activation inhibitor classification” value in the test with T cell activation (setting [3]) is “T cell activation inhibitor”.

Consider `Cc1ccc(-c2nn(C(C)(C)C)c3ncnc(N)c23)c2ccccc12` [Compound 9], for which, in test [1], the result was active. For the same compound, in the test on IFN-gamma signaling, the “gamma interferon signaling inhibitor classification” value is “interferon gamma signaling inhibitor”.

`CC(C)(C)n1nc(-c2ccc3c4c(cccc24)CC3)c2c(N)ncnc21` [Compound 11]: the outcome in test [1] was active. In addition, the “gamma interferon signaling inhibitor classification” value in the test on IFN-gamma signaling is listed as “interferon gamma signaling inhibitor”.

Consider `CC(C)(C)n1nc(-c2ccc3ccccc3c2)c2c(N)ncnc21` [Compound 10], for which the result in test [1] was active. For the same compound, the “T cell activation inhibitor classification” value with T cell activation (setting [3]) is given as “T cell activation inhibitor”.

As to `CC(C)(C)n1nc(Cc2ccccc2Cl)c2c(N)ncnc21` [Compound 30], the result in test [1] was active. Moreover, in test [2], the monocyte recruitment entry is reported as “reduce”, the neutrophil recruitment result was “reduce” and the “total number of leukocytes” value was “reduce”. Moreover, in the test on monocyte activation, the “monocyte activation inhibitor classification” value was “monocyte activation inhibitor”.

For the compound `CC(C)(C)n1nc(Cc2cccc3ccccc23)c2c(N)ncnc21` [Compound 7], the result in test [1] was active. In the test on IFN-gamma signaling, the “gamma interferon signaling inhibitor classification” value is recorded as “interferon gamma signaling inhibitor”.

`Cn1nc(-c2ccc3ccccc3c2)c2c(N)ncnc21` [Compound 48]: the result in test [1] was active. Besides, the “T cell activation inhibitor classification” value with T cell activation (setting [3]) is on record as “T cell activation inhibitor”.

As for `CC(C)(C)n1nc(-c2cccc3ccccc23)c2c(N)ncnc21` [Compound 19], the result in test [1] was active. In addition, in the test with IFN-gamma signaling, the “gamma interferon signaling inhibitor classification” value is “interferon gamma signaling inhibitor”.

In the case of `CC(C)n1nc(-c2cccc(O)c2)c2c(N)ncnc21` [Compound 54], the outcome in test [1] was active. For the same compound, the “T cell activation inhibitor classification” value in the test on T cell activation (setting [3]) is listed as “T cell activation inhibitor”.

For the compound `Cc1ccc(-c2nn(C(C)(C)C)c3ncnc(N)c23)cc1` [Compound 13, PP1, reference compound], the “T cell activation inhibitor classification” value in the test with T cell activation was “T cell activation inhibitor”.

Consider `CC(C)(C)n1nc(-c2ccc(F)c3ccccc23)c2c(N)ncnc21` [Compound 12], for which the outcome in test [1] was active. In the test on IFN-gamma signaling, the “gamma interferon signaling inhibitor classification” value is recorded as “interferon gamma signaling inhibitor”.

For the compound `CC(C)(C)Cn1nc(Cc2ccccc2Cl)c2c(N)ncnc21` [Compound 72], the result in test [1] was active. In the test with monocyte activation, the “monocyte activation inhibitor classification” value was “monocyte activation inhibitor”.

On to `CC(C)(C)n1nc(-c2ccc3c(c2)OCO3)c2c(N)ncnc21` [Compound 15], for which the outcome in test [1] was active. In addition, the “T cell activation inhibitor classification” value in the test on T cell activation (setting [3]) is on record as “T cell activation inhibitor”.
